Drawing on the Kinase Knowledgebase extract (Sharma et al. 2016), this text covers Ki for 86 compounds.

A word on the Ki: it is a measure of affinity in units of concentration, obtained from inhibition or displacement. Higher therefore signals weaker binding.

The assay concerns the target CDK2 (human) (UniProt P24941). Description: Enzyme Assay.
`O=c1[nH][nH]c2cc(CC(CCNc3nccnn3)Cc3ccccc3)ccc12` (stereo unspecified) showed a Ki of under 1000 nM. To `O=c1[nH][nH]c2cc(C(F)(F)F)c(-c3cc(N4CCCCC4)cc(Nc4n[nH]c5ccccc45)n3)cc12` belongs under 1000 nM; to `Cc1cc(Nc2nc(CCc3ccc4[nH][nH]c(=O)c4c3)nc3c2CCCC3)n[nH]1`, under 1000 nM. Then `O=C(CCNc1ccccn1)Nc1ccc2c(=O)[nH][nH]c2c1`, with under 1000 nM; and `Cc1cc(Nc2cc(C)[nH]n2)nc(C2(c3ccc4c(=O)[nH][nH]c4c3)CC2)n1`, with under 1000 nM. Then `Cc1cnc(NC(CCOc2ccc3c(=O)[nH][nH]c3c2)c2ccccc2)s1` (stereo unspecified), with under 1000 nM; and `CCCCc1cc(Nc2nncc(-c3ccc4[nH][nH]c(=O)c4c3)n2)n[nH]1`, with under 1000 nM; and `O=c1[nH][nH]c2ccc(-c3nc(Nc4n[nH]c5cc(=O)n(-c6ccccc6)nc45)c4ccccc4n3)cc12`, with under 1000 nM.

In turn, `O=C(CCSc1ccc2c(=O)[nH][nH]c2c1)Nc1ccccn1` had a Ki of under 1000 nM. Compound `O=c1[nH][nH]c2ccc(OCc3nc(Nc4cc(C5CC5)[nH]n4)c4ccccc4n3)cc12` had a Ki of under 1000 nM. Then `COC(C)(C)c1cc(Nc2cc(C3CC3)[nH]n2)nc(Sc2ccc3c(=O)[nH][nH]c3c2)n1`, with under 1000 nM; and `CCc1cc(Nc2cnnc(-c3ccc4[nH][nH]c(=O)c4c3)n2)n[nH]1`, with under 1000 nM. Then `O=c1[nH][nH]c2cc(Nc3nc(Nc4cc(C5CC5)[nH]n4)c4ccccc4n3)ccc12`, with under 1000 nM; and `O=c1[nH][nH]c2cc(Nc3ccc([N+](=O)[O-])c(Nc4ncn[nH]4)n3)ccc12`, with under 1000 nM.

Compound `Cn1cnc(NC2CCCC2CCc2ccc3c(=O)[nH][nH]c3c2)c1` (stereo unspecified) came in with a Ki of under 1000 nM.

Compound `COCCCc1cc(Nc2nc(-c3ccc4[nH][nH]c(=O)c4c3)nc3ccccc23)n[nH]1` displayed a Ki of under 1000 nM. In the case of `O=c1[nH][nH]c2cc(NCCONc3cc(C4CC4)[nH]n3)ccc12`, the Ki was under 1000 nM. With `O=C(CC(=O)Oc1ccc2c(=O)[nH][nH]c2c1)Nc1ccccn1`, the Ki is under 1000 nM.

In turn, `O=c1[nH][nH]c2cc(Nc3nc(Cl)nc(Nc4cc(C5CC5)[nH]n4)n3)ccc12` gave a Ki of under 1000 nM. To `O=c1[nH][nH]c2cc(SC(CCNc3ccccn3)Cc3ccccc3)ccc12` (stereo unspecified) belongs under 1000 nM.

On to `Cc1cnc(NC2CCCC2CSc2ccc3c(=O)[nH][nH]c3c2)s1` (stereo unspecified), for which the Ki was under 1000 nM.

The compound `Cc1cc(Nc2cc(-c3c(C)cccc3C)nc(Oc3ccc4c(=O)[nH][nH]c4c3)n2)n[nH]1` registered a Ki of under 1000 nM. As to `O=c1[nH][nH]c2ccc(-c3nc(Nc4n[nH]c5ccccc45)cc(Oc4ccccc4)n3)c(C(F)(F)F)c12`, the Ki was under 1000 nM. Then `O=c1[nH][nH]c2cc(C(F)(F)F)c(-c3nc(Nc4n[nH]c5ccccc45)nc(N4CCSCC4)n3)cc12`, with under 1000 nM; and `O=c1[nH][nH]c2cc(Sc3nc(Nc4cc(C5CC5)[nH]n4)cc(-c4ccccc4)n3)ccc12`, with under 1000 nM; and `Cc1nc(-c2ccc3[nH][nH]c(=O)c3c2Cl)nc(Nc2n[nH]c(C3CCCC3)n2)c1C`, with under 1000 nM. To `Cc1cc(Nc2nc(Sc3ccc4c(=O)[nH][nH]c4c3)cc3ccccc23)n[nH]1` belongs under 1000 nM.

The compound `O=c1[nH][nH]c2cc(SC3COCC(Nc4nccnn4)C3)ccc12` (stereo unspecified) yielded a Ki of under 1000 nM.

In turn, `Cc1cnc(NCCCOc2ccc3c(=O)[nH][nH]c3c2)s1` had an inhibitory constant (Ki) of under 1000 nM. In turn, `O=c1[nH][nH]c2cc([C@@H]3C[C@H]3c3nc(Nc4n[nH]c5ccccc45)c4ccccc4n3)ccc12` came in with a Ki of under 1000 nM. Then `O=c1[nH][nH]c2ccc(CNc3cc(Nc4cc(C5CC5)[nH]n4)ccn3)cc12`, with under 1000 nM; and `O=c1[nH][nH]c2ccc(-c3nc4c(c(Nc5n[nH]c6ccccc56)n3)N(Cc3ccccc3)CCC4)c(C(F)(F)F)c12`, with under 1000 nM. To `Cc1nc(Nc2ccc3c(=O)[nH][nH]c3c2)nc(Nc2cc(C3CC3)[nH]n2)n1` belongs under 1000 nM; to `CSc1nc(Nc2ccc3c(=O)[nH][nH]c3c2)cc(Nc2cc(C3CC3)[nH]n2)n1`, under 1000 nM. To `Cc1cc(Nc2cc(C)[nH]n2)nc(COc2ccc3[nH][nH]c(=O)c3c2)n1` belongs under 1000 nM; to `CN1CCN(C(=O)OCc2ccccc2)CC1c1cc(Nc2n[nH]c3ccccc23)nc(-c2ccc3[nH][nH]c(=O)c3c2C(F)(F)F)n1` (stereo unspecified), under 1000 nM; to `COc1ccc(-c2cc(Nc3cc(C)[nH]n3)nc(Oc3ccc4c(=O)[nH][nH]c4c3)n2)cc1`, under 1000 nM. Regarding `O=c1[nH][nH]c2cc(C(F)(F)F)c(-c3nc(Nc4n[nH]c5c(F)cc(F)cc45)c4cnsc4n3)cc12`, the Ki was under 1000 nM.

`O=c1[nH][nH]c2cc(Sc3cccc(Nc4cc(C5CC5)[nH]n4)n3)ccc12` showed a Ki of under 1000 nM.

Compound `COc1ccc2c(Nc3cc(C)[nH]n3)nc(Sc3ccc4c(=O)[nH][nH]c4c3)nc2c1` came in with a Ki of under 1000 nM. Then `Cc1cc(Nc2cc(NCCN(C)C)nc(Sc3ccc4c(=O)[nH][nH]c4c3)n2)n[nH]1`, with under 1000 nM.

Compound `Cc1cc(Nc2cccc(Oc3ccc4c(=O)[nH][nH]c4c3)n2)n[nH]1` gave a Ki of under 1000 nM.

Compound `Cc1cc(Nc2cc(Cc3ccc4c(=O)[nH][nH]c4c3)nc3ccccc23)n[nH]1` returned an inhibition constant Ki of under 1000 nM.

In the case of `CCc1cc(Nc2nc(-c3ccncc3)nc(-c3ccc4[nH][nH]c(=O)c4c3)n2)n[nH]1`, the Ki was under 1000 nM.

Compound `Cc1cc(Nc2cccc(NCc3ccc4c(=O)[nH][nH]c4c3)n2)n[nH]1` yielded a Ki of under 1000 nM. `O=c1[nH][nH]c2cc(OC3CCC(Nc4ccccn4)C3)ccc12` (stereo unspecified) gave a Ki of under 1000 nM.

With `O=c1[nH][nH]c2cc(SC(CCNc3nccnn3)Cc3ccccc3)ccc12` (stereo unspecified), the Ki was under 1000 nM.

`Cc1cc(Nc2cc(-c3ccc(OCCCN(C)C)cc3)nc(Sc3ccc4c(=O)[nH][nH]c4c3)n2)n[nH]1` displayed a Ki of under 1000 nM. To `Cc1cnc(NCCC(Cc2ccccc2)Oc2ccc3c(=O)[nH][nH]c3c2)s1` (stereo unspecified) belongs under 1000 nM; to `O=c1[nH][nH]c2cc(CCCCNc3nccnn3)ccc12`, under 1000 nM. `Cc1cnc(NC(CCCc2ccc3c(=O)[nH][nH]c3c2)c2ccccc2)s1` (stereo unspecified) showed a Ki of under 1000 nM. Then `Cc1nc(Nc2nc(-c3ccc4[nH][nH]c(=O)c4c3C(N)=O)nc3ccccc23)n[nH]1`, with under 1000 nM.

As for `O=c1[nH][nH]c2cc(OC3COCC(Nc4cc(C5CC5)[nH]n4)C3)ccc12` (stereo unspecified), the Ki is under 1000 nM. Then `O=c1[nH][nH]c2ccc(OCc3cc4ccccc4c(Nc4cc(C5CC5)[nH]n4)n3)cc12`, with under 1000 nM. Then `O=C(CCNc1ccc2c(=O)[nH][nH]c2c1)Nc1nccnn1`, with under 1000 nM. Then `O=C(CCNc1cc(C2CC2)[nH]n1)Oc1ccc2c(=O)[nH][nH]c2c1`, with under 1000 nM. Regarding `COCc1cc(Nc2cc(C)[nH]n2)nc(COc2ccc3[nH][nH]c(=O)c3c2)n1`, the Ki was under 1000 nM. To `Cc1cc(Nc2cc(C)[nH]n2)nc(C(C)(C)c2ccc3c(=O)[nH][nH]c3c2)n1` belongs under 1000 nM; to `Cc1cnc(NCCC(Cc2ccccc2)Cc2ccc3c(=O)[nH][nH]c3c2)s1` (stereo unspecified), under 1000 nM. On to `O=c1[nH][nH]c2cc(CCCONc3cc(C4CC4)[nH]n3)ccc12`, for which the Ki was under 1000 nM. Then `Cc1cc(Nc2cc(-c3ccccc3)[nH]n2)nc(Nc2ccc3c(=O)[nH][nH]c3c2)n1`, with under 1000 nM. To `O=c1[nH][nH]c2cc(Sc3nc(Nc4cc(C5CC5)[nH]n4)cc(N4CCOCC4)n3)ccc12` belongs under 1000 nM. Then `O=c1[nH][nH]c2cc(OC3COCC(Nc4ccccn4)C3)ccc12` (stereo unspecified), with under 1000 nM; and `Cc1cc(Nc2nc(-c3ccc4[nH][nH]c(=O)c4c3)cc3ccccc23)n[nH]1`, with under 1000 nM; and `Cc1cc(Nc2nc([C@@H]3C[C@H]3c3ccc4c(=O)[nH][nH]c4c3)nc3ccccc23)n[nH]1`, with under 1000 nM.

Turning to `Cc1cnc(NCCC(=O)Nc2ccc3c(=O)[nH][nH]c3c2)s1`, the Ki was under 1000 nM. To `O=c1[nH][nH]c2cc(SC3CCCC(Nc4cc(C5CC5)[nH]n4)C3)ccc12` (stereo unspecified) belongs under 1000 nM. To `O=c1[nH][nH]c2cc(OC(CCNc3ccccn3)Cc3ccccc3)ccc12` (stereo unspecified) belongs under 1000 nM; to `Cn1cnc(NC(=O)CC(=O)Oc2ccc3c(=O)[nH][nH]c3c2)c1`, under 1000 nM. To `O=c1[nH][nH]c2cc(SC3CCCC(Nc4nccnn4)C3)ccc12` (stereo unspecified) belongs under 1000 nM; to `O=c1[nH][nH]c2cc(NC3COCC(Nc4ccccn4)C3)ccc12` (stereo unspecified), under 1000 nM; to `O=c1[nH][nH]c2cc(SC3COCC(Nc4cc(C5CC5)[nH]n4)C3)ccc12` (stereo unspecified), under 1000 nM. Turning to `CC(=O)N1CCC(c2cc(Nc3n[nH]c4ccccc34)nc(-c3ccc4[nH][nH]c(=O)c4c3C(F)(F)F)n2)CC1`, the Ki is under 1000 nM. To `Cn1cnc(NCCCOc2ccc3c(=O)[nH][nH]c3c2)c1` belongs under 1000 nM; to `Cn1cnc(NC(=O)CCSc2ccc3c(=O)[nH][nH]c3c2)c1`, under 1000 nM. To `O=c1[nH][nH]c2cc(C3CC3C3COCC(Nc4nccnn4)C3)ccc12` (stereo unspecified) belongs under 1000 nM; to `O=c1[nH][nH]c2cc(Sc3cc4ccccc4c(Nc4n[nH]c5ccccc45)n3)ccc12`, under 1000 nM. To `Nc1ccc(Nc2ccc3c(=O)[nH][nH]c3c2)nc1Nc1cc(C2CC2)[nH]n1` belongs under 1000 nM; to `Cc1cccc2c(Nc3cc(-c4ccco4)[nH]n3)nc(-c3ccc4[nH][nH]c(=O)c4c3OC(F)(F)F)nc12`, under 1000 nM. In turn, `CCc1cc(Nc2cc(C)[nH]n2)nc(Nc2ccc3c(=O)[nH][nH]c3c2)n1` came in with a Ki of under 1000 nM.

Take `CCCCc1cc(Nc2nc(-c3ccc4[nH][nH]c(=O)c4c3)nc(C3CC3)n2)n[nH]1`: the Ki was under 1000 nM. Then `Cc1cc(-c2cc3c(=O)[nH][nH]c3cc2Cl)nc(Nc2n[nH]c3ccccc23)c1C`, with under 1000 nM; and `O=c1[nH][nH]c2cc(C(F)(F)F)c(-c3nc(Nc4cc(C5CC5)[nH]n4)nc(-c4ccncc4)n3)cc12`, with under 1000 nM. To `O=c1[nH][nH]c2cc(Sc3nc(Nc4n[nH]c5ccccc45)c4ccccc4n3)ccc12` belongs under 1000 nM. To `N#Cc1cc2[nH][nH]c(=O)c2cc1-c1nc(Nc2n[nH]c3ccccc23)nc(N2CCCCC2)n1` belongs under 1000 nM. `CC(C)c1cc(Nc2nc(Nc3ccc4c(=O)[nH][nH]c4c3)nc3ccccc23)n[nH]1` came in with an inhibition constant Ki of under 1000 nM.
